# Assay results from PubChem BioAssay (NCI).
#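 Five concentrations, 48 hours, 96-well plates. GI50 is the concentration that inhibits growth by half. TGI is the concentration that stops growth completely.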
# Key:
# Assay in all cases: NCI anticancer screen, dose series, 48 h
# [1] = tested on: 786-0 renal
# [2] = tested on: A498 renal
# [3] = tested on: A549 NSCLC
# [4] = tested on: ACHN renal
# [5] = tested on: BT-549 breast
# [6] = tested on: CAKI-1 renal
# [7] = tested on: CCRF-CEM leukemia
# [8] = tested on: COLO 205 colon
# [9] = tested on: DU-145 prostate
# [10] = tested on: EKVX NSCLC
# [11] = tested on: HCC-2998 colon
# [12] = tested on: HCT-116 colon
# [13] = tested on: HCT-15 colon
# [14] = tested on: HL-60(TB) leukemia
# [15] = tested on: HOP-62 NSCLC
# [16] = tested on: HOP-92 NSCLC
# [17] = tested on: HS 578T breast
# [18] = tested on: HT29 colon
# [19] = tested on: IGROV1 ovarian
# [20] = tested on: K-562 leukemia
# [21] = tested on: KM12 colon
# [22] = tested on: LOX IMVI melanoma
# [23] = tested on: M14 melanoma
# [24] = tested on: MALME-3M melanoma
# [25] = tested on: MCF7 breast
# [26] = tested on: MDA-MB-231 breast
# [27] = tested on: MDA-MB-435
# [28] = tested on: MDA-N
# [29] = tested on: MOLT-4 leukemia
# [30] = tested on: NCI-H226 lung
# [31] = tested on: NCI-H23 lung
# [32] = tested on: NCI-H460 lung
# [33] = tested on: NCI-H522 lung
# [34] = tested on: NCI/ADR-RES ovarian
# [35] = tested on: OVCAR-3 ovarian
# [36] = tested on: OVCAR-4 ovarian
# [37] = tested on: OVCAR-5 ovarian
# [38] = tested on: OVCAR-8 ovarian
# [39] = tested on: PC-3 prostate
# [40] = tested on: RPMI-8226 leukemia
# [41] = tested on: RXF 393 renal
# [42] = tested on: SF-268 CNS
# [43] = tested on: SF-295 CNS
# [44] = tested on: SF-539 CNS
# [45] = tested on: SK-MEL-2 melanoma
# [46] = tested on: SK-MEL-28 melanoma
# [47] = tested on: SK-MEL-5 melanoma
# [48] = tested on: SK-OV-3 ovarian
# [49] = tested on: SN12C renal
# [50] = tested on: SNB-19 CNS
# [51] = tested on: SNB-75 CNS
# [52] = tested on: SR leukemia
# [53] = tested on: SW-620 colon
# [54] = tested on: T-47D breast
# [55] = tested on: TK-10 renal
# [56] = tested on: U251 CNS
# [57] = tested on: UACC-257 melanoma
# [58] = tested on: UACC-62 melanoma
# [59] = tested on: UO-31 renal
# [60] = tested on: KM20L2 colon
structure (smiles),measurement,setting,value
C/C=C/[C@@H](C(=O)OC)N1C(=O)c2ccccc2[C@H]1O,TGI,[1],> 100 µM
same,TGI,[2],> 100 µM
same,TGI,[3],> 100 µM
same,TGI,[4],> 100 µM
same,TGI,[5],> 100 µM
same,TGI,[6],> 100 µM
same,TGI,[7],> 100 µM
same,TGI,[8],> 100 µM
same,TGI,[9],> 100 µM
same,TGI,[10],> 100 µM
same,TGI,[11],> 100 µM
same,TGI,[12],> 100 µM
same,TGI,[13],> 100 µM
same,TGI,[14],> 100 µM
same,TGI,[15],> 100 µM
same,TGI,[16],> 100 µM
same,TGI,[17],> 100 µM
same,TGI,[18],> 100 µM
same,TGI,[19],> 100 µM
same,TGI,[20],> 100 µM
same,TGI,[21],> 100 µM
same,TGI,[22],> 100 µM
same,TGI,[23],> 100 µM
same,TGI,[24],> 100 µM
same,TGI,[25],> 100 µM
same,TGI,[26],> 100 µM
same,TGI,[27],> 100 µM
same,TGI,[28],> 100 µM
same,TGI,[29],> 100 µM
same,TGI,[30],> 100 µM
same,TGI,[31],> 100 µM
same,TGI,[32],> 100 µM
same,TGI,[33],> 100 µM
same,TGI,[34],> 100 µM
same,TGI,[35],> 100 µM
same,TGI,[36],> 100 µM
same,TGI,[37],> 100 µM
same,TGI,[38],> 100 µM
same,TGI,[39],> 100 µM
same,TGI,[40],> 100 µM
same,TGI,[41],> 100 µM
same,TGI,[42],> 100 µM
same,TGI,[43],> 100 µM
same,TGI,[44],> 100 µM
same,TGI,[45],> 100 µM
same,TGI,[46],> 100 µM
same,TGI,[47],> 100 µM
same,TGI,[48],> 100 µM
same,TGI,[49],> 100 µM
same,TGI,[50],> 100 µM
same,TGI,[51],> 100 µM
same,TGI,[52],> 100 µM
same,TGI,[53],> 100 µM
same,TGI,[54],> 100 µM
same,TGI,[55],> 100 µM
same,TGI,[56],> 100 µM
same,TGI,[57],> 100 µM
same,TGI,[58],> 100 µM
same,TGI,[59],> 100 µM
COC(=O)C(Cc1ccc2c(c1)CCCC2)Cc1cc2c(cc1C(O)OC)CCC2 (configuration not stated),TGI,[1],> 100 µM
same,TGI,[2],> 100 µM
same,TGI,[3],> 100 µM
same,TGI,[4],> 100 µM
same,TGI,[5],> 100 µM
same,TGI,[6],> 100 µM
same,TGI,[7],> 100 µM
same,TGI,[8],> 100 µM
same,TGI,[9],> 100 µM
same,TGI,[10],> 100 µM
same,TGI,[11],> 100 µM
same,TGI,[12],> 100 µM
same,TGI,[13],> 100 µM
same,TGI,[14],56.9 µM
same,TGI,[15],> 100 µM
same,TGI,[16],> 100 µM
same,TGI,[17],> 100 µM
same,TGI,[18],> 100 µM
same,TGI,[19],> 100 µM
same,TGI,[20],> 100 µM
same,TGI,[21],> 100 µM
same,TGI,[22],> 100 µM
same,TGI,[23],> 100 µM
same,TGI,[24],> 100 µM
same,TGI,[25],65.1 µM
same,TGI,[26],> 100 µM
same,TGI,[27],> 100 µM
same,TGI,[28],> 100 µM
same,TGI,[29],> 100 µM
same,TGI,[30],> 100 µM
same,TGI,[31],> 100 µM
same,TGI,[32],> 100 µM
same,TGI,[33],> 100 µM
same,TGI,[34],> 100 µM
same,TGI,[35],> 100 µM
same,TGI,[36],> 100 µM
same,TGI,[37],> 100 µM
same,TGI,[38],> 100 µM
same,TGI,[39],> 100 µM
same,TGI,[40],> 100 µM
same,TGI,[41],67.3 µM
same,TGI,[42],> 100 µM
same,TGI,[43],> 100 µM
same,TGI,[44],> 100 µM
same,TGI,[45],> 100 µM
same,TGI,[46],> 100 µM
same,TGI,[47],> 100 µM
same,TGI,[48],> 100 µM
same,TGI,[49],> 100 µM
same,TGI,[50],> 100 µM
same,TGI,[51],> 100 µM
same,TGI,[52],> 100 µM
same,TGI,[53],> 100 µM
same,TGI,[54],> 100 µM
same,TGI,[55],> 100 µM
same,TGI,[56],> 100 µM
same,TGI,[57],90.4 µM
same,TGI,[58],> 100 µM
same,TGI,[59],> 100 µM
O=C(N/N=C/c1cc(Cl)cc(Cl)c1[O-])c1ccccc1O.O=C(N/N=C/c1cc(Cl)cc(Cl)c1[O-])c1ccccc1O.[Cl-].[Fe+3],GI50,[3],10.2 µM
same,TGI,[3],63.8 µM
same,TGI,[4],38.5 µM
same,TGI,[6],> 100 µM
same,GI50,[8],19.4 µM
same,TGI,[8],44.4 µM
same,GI50,[10],29.3 µM
same,TGI,[10],88.3 µM
same,TGI,[11],23.5 µM
same,GI50,[12],5.78 µM
same,TGI,[12],18.9 µM
same,TGI,[13],18.7 µM
same,TGI,[14],5.22 µM
same,TGI,[15],36.2 µM
same,GI50,[16],1.95 µM
same,TGI,[16],7.18 µM
same,TGI,[18],34.8 µM
same,TGI,[19],48.4 µM
same,GI50,[21],12.6 µM
same,TGI,[21],37.9 µM
same,GI50,[60],10.7 µM
same,TGI,[60],24 µM
same,TGI,[22],30.9 µM
same,TGI,[23],35.3 µM
same,TGI,[30],20.5 µM
same,GI50,[31],7.73 µM
same,TGI,[31],25.7 µM
same,TGI,[32],36 µM
same,TGI,[33],31.5 µM
same,TGI,[35],27 µM
same,TGI,[36],26.6 µM
same,TGI,[37],26 µM
same,TGI,[38],25.9 µM
same,TGI,[41],23.7 µM
same,TGI,[42],69.8 µM
same,TGI,[43],22.4 µM
same,GI50,[44],10.5 µM
same,TGI,[44],27.9 µM
same,GI50,[45],17.1 µM
same,TGI,[45],37.1 µM
same,TGI,[48],29.2 µM
same,TGI,[50],22.7 µM
same,TGI,[51],60.4 µM
same,TGI,[52],25.3 µM
same,TGI,[53],29.9 µM
same,TGI,[55],> 100 µM
same,TGI,[57],51.2 µM
same,TGI,[58],33.6 µM
same,TGI,[59],31.7 µM
